“And” between values parts separate entries of the source, which are not always exact repeats. Equal entries are not always repeated. “Also recorded” adds a separate entry of the source. In the oligonucleotide strings, read from the 5' end, every base follows the letter of its sugar. An asterisk marks phosphorothioate; unmarked linkages are phosphodiester. Other units and linkages are bracketed, terminal groups are in braces. A string of capitals states the bases alone. m = 2'-O-methyl; r = 2'-OH (RNA); {P} = phosphate
Key:
CFTR = test: DPC block of cAMP-activated whole cell currents in treated Δ508 cells; format: cell-based, human; details: DPC 500 μM
Experimental: Whole-cell and excised inside-out patches were obtained to assess cAMP-PKA dependent anion currents in treated Δ508 cells. Currents and command voltages were obtained and driven. respectively, with a Dagan 3900 amplifier using a 1 gigaohm headstage. The excised patch-clamp configuration was carried out as previously described [Reisin et al., (1994) J. Biol. Chem. 269, 20584-20591]. Single channel data were obtained between ±100 mV in symmetrical Cl^−. Data were further analyzed as previously described [Reisin et al., (1994) J. Biol. Chem. 269, 20584-20591]. The pipette and bathing solution contained, in mmol/L, either: NaCl 140, MgCl2 1.0, KCl 5, and N-2-hydroxyethylpiperazine N′-2-ethanesulfonic acid (HEPES) 10, at pH 7.4, or MgCl2 70, HEPES 10, pH 7.4. The bathing solution also contained 1.0 mmol/L CaCl2. Whenever indicated, the patch-pipette was filled up to at least one third of its height with either MgATP or TrisATP (100 mmol/L, pH 7.4 adjusted with N-methyl-glucamine) as previously reported [Reisin et al., (1994) J. Biol. Chem. 269, 20584-20591]. Experiments were conducted at room temperature. The cAMP stimulatory mixture contained 8-Br-cAMP, isobutyl-methyl-xanthine (IBMX) and forskolin. Final concentrations were 500 μmol/L, […], and 10 μmol/L, respectively. The catalytic subunit of PKA was used at a final concentration of 20 μg/ml. […]

CFTR protein = test: Western blot with antibodies to epitopes upstream and downstream of the Δ508 deletion; format: cell-based, human; details: both antibodies same level of protein, no truncated or degraded peptides
Experimental: (§1) Without being limited by any particular mechanism, the hypothesis was tested as to whether base insertion in the treated Δ508 cells has occurred at the RNA level. It was possible that the repair mechanism was carried out instead of/or in addition to, the DNA level, by way of reverse transcription extending back to the genome. This was tested by RT-PCR analysis of DNA from subcloned Δ508 cells originally treated with CF4/CF6. No evidence was obtained that the restored phenotype was carried back to the inheritable DNA genome level was obtained. Western blot analysis was conducted with antibodies targeted to epitopes upstream and downstream of the Δ508 deletion, respectively.

[1] = tested on: Δ508CFTR expressing cells; test: Single channel currents in excised inside-out patches (PKA and ATP activation); format: cell-based, mouse; details: treated Δ508 cells
Experimental: (§2) Mouse mammary carcinoma cells (c127i) transfected with human epithelial CFTR wild type (WT1) or Δ508 CFTR cells [Cannello et al., (1994), J. Biol. Chem. 269, 11224-11232; Dechecchi et al., (1993) J. Biol. Chem. 268, 11321-11325] were used for these studies. The transfected c127i cells are high level producers of Δ508 CFTR mRNA. Cells were grown and maintained in Dulbecco's medium (DMEM), supplemented with 10% fetal bovine serum and 1% L-glutamine, as previously reported [Verkman, (1990) Am. J. Physiol. 259, C375-C388].
Whole-cell and excised inside-out patches were obtained to assess cAMP-PKA dependent anion currents in treated Δ508 cells. Currents and command voltages were obtained and driven. respectively, with a Dagan 3900 amplifier using a 1 gigaohm headstage. The excised patch-clamp configuration was carried out as previously described [Reisin et al., (1994) J. Biol. Chem. 269, 20584-20591]. Single channel data were obtained between ±100 mV in symmetrical Cl^−. Data were further analyzed as previously described [Reisin et al., (1994) J. Biol. Chem. 269, 20584-20591]. The pipette and bathing solution contained, in mmol/L, either: NaCl 140, MgCl2 1.0, KCl 5, and N-2-hydroxyethylpiperazine N′-2-ethanesulfonic acid (HEPES) 10, at pH 7.4, or MgCl2 70, HEPES 10, pH 7.4. The bathing solution also contained 1.0 mmol/L CaCl2. […]

Δ508 CFTR mRNA = test: RT-PCR, subcloning and sequencing of CFTR mRNA; format: cell-based, human; details: mRNA from CF4/CF6 treated Δ508 cells (10 μM), subcloned RT-PCR products
Experimental: Total RNA isolated by Trizol® reagent according to the manufacturer's protocol (Invitrogen, CA) from either WT1 or Δ508 cells treated with or without CF6/CF4 annealed duplex oligonucleotides (final concentration of duplex in reaction mixture 10 μM) was used to perform the RT-PCR assay [Kleppe et al., (1971) J. Mol. Biol. 56, 341-361] in two steps by using a ThermoScript RT-PCR system (GIBCO, BRL). Several sets of primers were used (see CF Table 1). In the first step, total RNA (˜2 μg) was incubated for […] at 55° C. with amplification refractory mutation system (ARMS) [Ferric et al., (1992) Am. J. Hum. Genet. 51, 251-262] reverse mutant (M1) and normal (N1) primers (0.5 μg each) separately for the first-strand synthesis. In a second step, after heating at 94° C. for 5 mM, 35 cycles of PCR were carried out on the samples. PCR cycles were performed first by denaturation at 94° C. for 2 mM, annealing at 62° C. for 1 min, and extension at 72° C. for 2 min, followed by a final extension for 10 mM at 72° C. Two ARMS reverse primers (N1 and M1) [Ferric et al., (1992) Am. J. Hum. Genet. 51, 251-262], and a forward (F1) primer were used (Table 1). Similarly RT-PCR was performed with ARMS PS reverse primer (SCFR) and PS forward primer (SNF1, Table 1). RT-PCR products were separated in 3% agarose gel and subjected to automated DNA sequence analysis. […]

Δ508 cells = test: SPQ fluorescence assay of cAMP-stimulated Cl- transport; format: cell-based, mouse; details: CF4/CF6 treated Δ508 cells compared with WT1 cells; control Δ508 cells no change
Experimental: as §2
Cyclic-AMP-stimulated CY transport was also followed by fluorescence changes of cells loaded with the CY sensitive dye 6-methoxy-N-(3-sulfopropyl)quinolinium (SPQ) [Verkman, (1990) Am. J. Physiol. 259, C375-C388]. Briefly, cells were grown to partial confluence on glass coverslips. […] SPQ fluorescence was determined under an oil immersion X20 objective in a Nikon E-800 fluorescence microscope (Tokyo, Japan), with an UV filter (96101C UV-2E/C). […] Pictures were analyzed digitally with the NIH Image 1.62b7 software. SPQ cytoplasmic fluorescence values were normalized between intra-nuclear (considered as zero quenching, i.e. low Cl^−), and extracellular background. Data were expressed as percent fluorescence with respect to time zero, the time when cells were placed in an isotonic saline solution. […]

DNA genome of Δ508 cells = test: RT-PCR analysis of DNA from subcloned treated Δ508 cells; format: cell-based; details: subcloned Δ508 cells originally treated with CF4/CF6
Experimental: as §1

[2] = tested on: Δ508CFTR expressing cells; test: Whole-cell patch clamp, cAMP-activated whole cell currents; format: cell-based, mouse
Experimental: as §2
Whole-cell and excised inside-out patches were obtained to assess cAMP-PKA dependent anion currents in treated Δ508 cells. Currents and command voltages were obtained and driven. respectively, with a Dagan 3900 amplifier using a 1 gigaohm headstage. The excised patch-clamp configuration was carried out as previously described [Reisin et al., (1994) J. Biol. Chem. 269, 20584-20591]. Single channel data were obtained between ±100 mV in symmetrical Cl^−. Data were further analyzed as previously described [Reisin et al., (1994) J. Biol. Chem. 269, 20584-20591]. The pipette and bathing solution contained, in mmol/L, either: NaCl 140, MgCl2 1.0, KCl 5, and N-2-hydroxyethylpiperazine N′-2-ethanesulfonic acid (HEPES) 10, at pH 7.4, or MgCl2 70, HEPES 10, pH 7.4. The bathing solution also contained 1.0 mmol/L CaCl2. Whenever indicated, the patch-pipette was filled up to at least one third of its height with either MgATP or TrisATP (100 mmol/L, pH 7.4 adjusted with N-methyl-glucamine) as previously reported [Reisin et al., (1994) J. Biol. Chem. 269, 20584-20591]. Experiments were conducted at room temperature. The cAMP stimulatory mixture contained 8-Br-cAMP, isobutyl-methyl-xanthine (IBMX) and forskolin. Final concentrations were 500 μmol/L, […], and 10 μmol/L, respectively. The catalytic subunit of PKA was used at a final concentration of 20 μg/ml. The Cl^− channel blocker, diphenylamine-2-carboxylate (DPC) was kept in a 100-fold stock solution (20 mmol/L) in 50% water/ethanol. DPC was used at a final concentration of 500 μM.
To restore the normal (wild type) phenotype in cells expressing Δ508CFTR, modified oligonucleotides were constructed and their effect on ion transport was assessed in Δ508 cells treated with these constructs. In a first step, a modified oligodeoxyribonucleotide was synthesized, containing phosphorothioate (PS) and PS plus 2′-O-methyl modifications for the central and flanking segments, respectively. This oligonucleotide was designed to hybridize in Watson-Crick base complementarity to the region of Δ508 mRNA where the PS section would be directly opposite the Δ508 mRNA position, flanked 3′- and 5′- by adjacent nucleotides complementary to the Δ508 mRNA. Accordingly, the PS segment would activate endogenous RNase H, and cleave those bases opposite the PS complementary oligonucleotide (10 μM). The insertion of bases then occurs in a second step.
For the second or insertion step, two complementary single strand oligonucleotides, CF4 and CF6 (Table 1, Scheme 1A) were constructed. The annealed CF4/CF6 duplex (10 μM final concentration) was added to the Δ508 CFTR cells after 2 hours incubation, then washout, in the deletion step. Next, following overnight or up to 72 hour incubation in the second (insertion) step, patch clamp examination was conducted on the treated cells.

[3] = two step treated Δ508 cells, n=24

Molecule	effect on cAMP-activated currents (CFTR; CF4/CF6 treated Δ508 cells, FIG. 1)	inhibition of cAMP-activated currents (CFTR; two step treated Δ508 cells) [%]	CFTR protein made in the presence of the oligonucleotides (CFTR protein)	single channel conductance of PKA-activated Cl- channels ([1]; excised inside-out patches)	treated cells displaying PKA and ATP activated Cl- channels ([1]; control Δ508 cells 0/24)	UGU insertion in Δ508 mRNA (percentage of subclones showing TGT insertion) (Δ508 CFTR mRNA)	change in SPQ fluorescence in response to cAMP stimulation (Δ508 cells)	restored phenotype carried back to the inheritable DNA genome level (DNA genome of Δ508 cells)	time to restoration of CFTR channel function ([2]; CF4/CF6 duplex added to Δ508 cells in tissue culture, patch clamping and SPQ quenching) [h]	whole-cell currents in the absence of cAMP stimulation ([2]; CF4/CF6 treated cells, data not shown)	cAMP-activated whole cell conductance ([2]; CF4/CF6 treated Δ508 cells, FIG. 1, untreated Δ508 cells lacked it)	persistence of restored CFTR function ([2]; after cell replication and washing out of the oligonucleotide after a few days incubation)	phenotypic reversion by patch clamp ([2]; one step: CF4/CF6 duplex added without first oligonucleotide treatment step)	increase of whole cell currents after cAMP stimulation ([2]; two step treated Δ508 cells (PS oligonucleotide 10 μM 2 h, washout, then CF4/CF6 10 μM overnight to 72 h), n=24, p<0.01) [%]	whole cell conductance after cAMP stimulation [2, 3] [nS/Cell]	whole cell conductance before cAMP stimulation [2, 3] [nS/Cell]
O=C(O)c1ccccc1Nc1ccccc1 [DPC, diphenylamine-2-carboxylate]	inhibited	> 84														
CF4/CF6: 2′-O-methyl RNA/unmodified RNA oligonucleotide duplex of CF4 (SEQ ID NO: 1) and CF6 (SEQ ID NO: 2) (chain 1 mAmUmCmAmUmAmGmGmAmAmAmCmAmCmCmAmAmAmGmAmUmGmAmUmAmUmUmUmUmCmUmUmU; chain 2 {P}-rCrArUrCrUrUrUrGrGrUrG-{P}; listed as Homo sapiens)			full-length protein was made; also recorded: does not act as an inhibitor of protein synthesis	10-12 pS and 12 pS	10/12	20-30%	comparably similar change in SPQ fluorescence	No evidence	8 to 18	sporadically showed large, DPC inhibitable whole-cell currents	robust cAMP response	restoration of CFTR function was lost	phenotypic reversion was likewise found	243	2.98±0.68	0.87±0.16

Source: US8841271B2, “Oligonucleotide complex compositions and methods of use as gene alteration tools” (The General Hospital Corporation, priority 2004, dated 2014)
